Literature values as cited in patent US6770295B1 (Pharmacia AB, priority 1998, dated 2004).

Conditions: following oral administration

SMILES: CCN(CC)CC#CCOC(=O)C(O)(c1ccccc1)C1CCCCC1 (racemic) [Oxybutynin, 4-diethylamino-2-butynyl-phenylcyclohexylglycolate]
- duration: three to six
